Results: ChEMBL document CHEMBL3885861, “Open TG-GATES”

Organism: Rattus norvegicus
Test: Open TG-GATES - Regimen: Single
Assay type: toxicity, organism-based, Sprague-Dawley
Parameters: regimen Single, gender Male, age 6 weeks
Conditions: in vivo, po, route gavage; for APTT / Bas / Eos / Fbg / Hb / Ht / Lym / MCH / MCHC / MCV / Mono / Neu / PT / Plat / RBC / Ret / WBC: tissue Blood; for ALP / ALT / AST / BUN / CRE / DBIL / GLC / IP / K / Na / PL / RALB / TBIL / TC / TG / TP / gamma-GTP: tissue Plasma
[1] = 0 mg/kg, 3 h, dose level Control
[2] = 0 mg/kg, 6 h, dose level Control
[3] = 0 mg/kg, 9 h, dose level Control
[4] = 0 mg/kg, 24 h, dose level Control

## NS(=O)(=O)c1cc(C(=O)O)c(NCc2ccco2)cc1Cl [FUROSEMIDE]
[1]
  TERMINAL_BW: 205.5 g
  APTT: 15.8 s
  Bas: 0%
  Eos: 0.8%
  Fbg: 270 mg/dL
  Hb: 13.2 g/dL
  Ht: 39.9%
  Lym: 78.2%
  MCH: 21.5 pg
  MCHC: 33.2%
  MCV: 64.8 fL
  Mono: 2.8%
  Neu: 17.2%
  PT: 15.6 s
  Plat: 115.8 x10_4/uL
  RBC: 615.6 x10_4/ul
  Ret: 7.3%
  WBC: 70.5 x10_2/uL
  ALP: 1448.8 IU/L
  ALT: 40.4 IU/L
  AST: 76.2 IU/L
  BUN: 10.2 mg/dL
  CRE: 0.2 mg/dL
  DBIL: 0.01 mg/dL
  GLC: 172.8 mg/dL
  IP: 9 mg/dL
  K: 4 meq/L
  Na: 142.4 meq/L
  PL: 137.6 mg/dL
  RALB: 2.5 g/dL
  TBIL: 0.058 mg/dL
  TC: 72.2 mg/dL
  TG: 61.6 mg/dL
  TP: 5.4 g/dL
  gamma-GTP: 0.6 IU/L
[2]
  TERMINAL_BW: 207.5 g
  APTT: 16.5 s
  Bas: 0%
  Eos: 1.2%
  Fbg: 313.6 mg/dL
  Hb: 13.1 g/dL
  Ht: 39.4%
  Lym: 75.8%
  MCH: 21.2 pg
  MCHC: 33.1%
  MCV: 63.9 fL
  Mono: 2.8%
  Neu: 19.4%
  PT: 15.3 s
  Plat: 122.5 x10_4/uL
  RBC: 617.2 x10_4/ul
  Ret: 8%
  WBC: 72.8 x10_2/uL
  ALP: 1332.6 IU/L
  ALT: 39 IU/L
  AST: 70.6 IU/L
  BUN: 11 mg/dL
  CRE: 0.2 mg/dL
  DBIL: 0.012 mg/dL
  GLC: 173.8 mg/dL
  IP: 9.7 mg/dL
  K: 3.9 meq/L
  Na: 142.2 meq/L
  PL: 143.2 mg/dL
  RALB: 2.6 g/dL
  TBIL: 0.062 mg/dL
  TC: 80.4 mg/dL
  TG: 48.8 mg/dL
  TP: 5.5 g/dL
  gamma-GTP: 0.8 IU/L
[3]
  TERMINAL_BW: 206.6 g
  APTT: 19.4 s
  Bas: 0%
  Eos: 0.8%
  Fbg: 294.4 mg/dL
  Hb: 13 g/dL
  Ht: 39%
  Lym: 79.6%
  MCH: 20.7 pg
  MCHC: 33.2%
  MCV: 62.4 fL
  Mono: 2.2%
  Neu: 17%
  PT: 15.3 s
  Plat: 108.3 x10_4/uL
  RBC: 625.6 x10_4/ul
  Ret: 7.8%
  WBC: 70.5 x10_2/uL
  ALP: 1206 IU/L
  ALT: 40.8 IU/L
  AST: 68.2 IU/L
  BUN: 9 mg/dL
  CRE: 0.2 mg/dL
  DBIL: 0.01 mg/dL
  GLC: 182.8 mg/dL
  IP: 10.2 mg/dL
  K: 4 meq/L
  Na: 144.2 meq/L
  PL: 142 mg/dL
  RALB: 2.6 g/dL
  TBIL: 0.066 mg/dL
  TC: 79 mg/dL
  TG: 35.8 mg/dL
  TP: 5.6 g/dL
  gamma-GTP: 0.8 IU/L
[4]
  TERMINAL_BW: 222.4 g
  APTT: 16.2 s
  Bas: 0%
  Eos: 1%
  Fbg: 270.8 mg/dL
  Hb: 13.1 g/dL
  Ht: 39.3%
  Lym: 74.2%
  MCH: 21.3 pg
  MCHC: 33.3%
  MCV: 64.1 fL
  Mono: 3.2%
  Neu: 20.6%
  PT: 15.9 s
  Plat: 116.4 x10_4/uL
  RBC: 613.6 x10_4/ul
  Ret: 7.6%
  WBC: 104.1 x10_2/uL
  ALP: 1714.2 IU/L
  ALT: 47.4 IU/L
  AST: 73.4 IU/L
  BUN: 15.4 mg/dL
  CRE: 0.2 mg/dL
  DBIL: 0.014 mg/dL
  GLC: 182.4 mg/dL
  IP: 8.4 mg/dL
  K: 4.2 meq/L
  Na: 141.6 meq/L
  PL: 156 mg/dL
  RALB: 2.6 g/dL
  TBIL: 0.052 mg/dL
  TC: 81.6 mg/dL
  TG: 72.8 mg/dL
  TP: 5.7 g/dL
  gamma-GTP: 0.8 IU/L
30 mg/kg, 3 h, dose level Low
  TERMINAL_BW: 201.3 g
  APTT: 18.1 s
  Bas: 0%
  Eos: 1%
  Fbg: 278.8 mg/dL
  Hb: 14 g/dL
  Ht: 41.6%
  Lym: 74.2%
  MCH: 21.2 pg
  MCHC: 33.6%
  MCV: 63.2 fL
  Mono: 4.4%
  Neu: 19.6%
  PT: 15.4 s
  Plat: 117.4 x10_4/uL
  RBC: 658.6 x10_4/ul
  Ret: 7.9%
  WBC: 68.2 x10_2/uL
  ALP: 1468.8 IU/L
  ALT: 46 IU/L
  AST: 77 IU/L
  BUN: 15.4 mg/dL
  CRE: 0.2 mg/dL
  DBIL: 0.01 mg/dL
  GLC: 179.2 mg/dL
  IP: 10.5 mg/dL
  K: 3.7 meq/L
  Na: 141.6 meq/L
  PL: 149.8 mg/dL
  RALB: 2.8 g/dL
  TBIL: 0.058 mg/dL
  TC: 79.4 mg/dL
  TG: 63.6 mg/dL
  TP: 5.9 g/dL
  gamma-GTP: 1 IU/L
30 mg/kg, 6 h, dose level Low
  TERMINAL_BW: 199.3 g
  APTT: 17.5 s
  Bas: 0%
  Eos: 1%
  Fbg: 324.6 mg/dL
  Hb: 14.1 g/dL
  Ht: 41.9%
  Lym: 74.4%
  MCH: 21.6 pg
  MCHC: 33.7%
  MCV: 64 fL
  Mono: 3.8%
  Neu: 20%
  PT: 15.2 s
  Plat: 124.8 x10_4/uL
  RBC: 655.4 x10_4/ul
  Ret: 7.9%
  WBC: 92.3 x10_2/uL
  ALP: 1320.8 IU/L
  ALT: 45.6 IU/L
  AST: 74.6 IU/L
  BUN: 17.8 mg/dL
  CRE: 0.2 mg/dL
  DBIL: 0.016 mg/dL
  GLC: 181.2 mg/dL
  IP: 10.4 mg/dL
  K: 3.6 meq/L
  Na: 141 meq/L
  PL: 156.2 mg/dL
  RALB: 2.9 g/dL
  TBIL: 0.074 mg/dL
  TC: 88.2 mg/dL
  TG: 44.2 mg/dL
  TP: 6.1 g/dL
  gamma-GTP: 1 IU/L
30 mg/kg, 9 h, dose level Low
  TERMINAL_BW: 199.5 g
  APTT: 17.3 s
  Bas: 0%
  Eos: 1%
  Fbg: 310.2 mg/dL
  Hb: 14 g/dL
  Ht: 41.4%
  Lym: 73%
  MCH: 21.5 pg
  MCHC: 33.8%
  MCV: 63.8 fL
  Mono: 3.2%
  Neu: 22%
  PT: 15.4 s
  Plat: 118.1 x10_4/uL
  RBC: 649.2 x10_4/ul
  Ret: 8.1%
  WBC: 89.5 x10_2/uL
  ALP: 1152.2 IU/L
  ALT: 38.6 IU/L
  AST: 68.6 IU/L
  BUN: 16.4 mg/dL
  CRE: 0.2 mg/dL
  DBIL: 0.01 mg/dL
  GLC: 181.4 mg/dL
  IP: 10.7 mg/dL
  K: 3.7 meq/L
  Na: 143 meq/L
  PL: 147.4 mg/dL
  RALB: 2.7 g/dL
  TBIL: 0.072 mg/dL
  TC: 81 mg/dL
  TG: 38 mg/dL
  TP: 5.8 g/dL
  gamma-GTP: 0.8 IU/L
30 mg/kg, 24 h, dose level Low
  TERMINAL_BW: 224.4 g
  APTT: 17.3 s
  Bas: 0.2%
  Eos: 1%
  Fbg: 267 mg/dL
  Hb: 13.3 g/dL
  Ht: 39.7%
  Lym: 78.6%
  MCH: 21.8 pg
  MCHC: 33.5%
  MCV: 65.1 fL
  Mono: 2.8%
  Neu: 16.4%
  PT: 15.8 s
  Plat: 118.7 x10_4/uL
  RBC: 610 x10_4/ul
  Ret: 7.4%
  WBC: 96 x10_2/uL
  ALP: 1538.8 IU/L
  ALT: 44.6 IU/L
  AST: 73.6 IU/L
  BUN: 16 mg/dL
  CRE: 0.2 mg/dL
  DBIL: 0.01 mg/dL
  GLC: 183.4 mg/dL
  IP: 7.7 mg/dL
  K: 4 meq/L
  Na: 142.6 meq/L
  PL: 147.8 mg/dL
  RALB: 2.6 g/dL
  TBIL: 0.052 mg/dL
  TC: 81.8 mg/dL
  TG: 60.8 mg/dL
  TP: 5.6 g/dL
  gamma-GTP: 0.8 IU/L
